PubChem BioAssay (NCI)
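The concentration for 50% growth inhibition is given as GI50. TGI: concentration producing complete growth inhibition.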

Tests used:
Assay in all cases: NCI tumour cell line growth inhibition, 384-well format
[1] = test system: UACC-62 melanoma
[2] = test system: PC-3 prostate
[3] = test system: KM12 colon
[4] = test system: MCF7 breast
[5] = test system: HCT-116 colon
[6] = test system: HL-60(TB) leukemia
[7] = test system: OVCAR-8 ovarian
[8] = test system: RPMI-8226 leukemia
[9] = test system: ACHN renal
[10] = test system: CCRF-CEM leukemia
[11] = test system: MDA-MB-468 breast
[12] = test system: TK-10 renal
[13] = test system: DU-145 prostate
[14] = test system: HOP-92 NSCLC
[15] = test system: SK-MEL-5 melanoma
[16] = test system: HT29 colon
[17] = test system: M14 melanoma
[18] = test system: HOP-62 NSCLC
[19] = test system: T-47D breast
[20] = test system: SF-268 CNS
[21] = test system: NCI-H23 lung
[22] = test system: SNB-75 CNS
[23] = test system: LOX IMVI melanoma
[24] = test system: SK-OV-3 ovarian
[25] = test system: SN12C renal
[26] = test system: UO-31 renal
[27] = test system: MDA-MB-231 breast
[28] = test system: BT-549 breast
[29] = test system: A498 renal
[30] = test system: IGROV1 ovarian
[31] = test system: RXF 393 renal
[32] = test system: MDA-MB-435 melanoma
[33] = test system: NCI-H322M lung
[34] = test system: SK-MEL-28 melanoma
[35] = test system: A549 NSCLC
[36] = test system: 786-0 renal
[37] = test system: EKVX NSCLC
[38] = test system: U251 glioblastoma
[39] = test system: NCI/ADR-RES ovarian
[40] = test system: OVCAR-3 ovarian
[41] = test system: SNB-19 CNS
[42] = test system: HCT-15 colon
[43] = test system: SW-620 colon
[44] = test system: SF-539 CNS
[45] = test system: SF-295 CNS
[46] = test system: HCC-2998 colon
[47] = test system: SR leukemia
[48] = test system: CAKI-1 renal
[49] = test system: UACC-257 melanoma
[50] = test system: MOLT-4 leukemia
[51] = test system: OVCAR-4 ovarian
[52] = test system: MALME-3M melanoma
[53] = test system: NCI-H226 lung
[54] = test system: NCI-H460 NSCLC
[55] = test system: COLO 205 colon
[56] = test system: NCI-H522 lung
[57] = test system: K-562 leukemia
[58] = test system: HS 578T breast

## Cn1ncc(NC(=O)c2nc(-c3c(F)cccc3F)sc2N)c1N1CC[C@@H](N)[C@H](F)CC1
[1]
  GI50: 3.34 µM
  TGI: 11.7 µM
[2]
  GI50: 3.23 µM
  TGI: 12.9 µM
[3]
  GI50: 6.59 µM
  TGI: 19.3 µM
[4]
  GI50: 2.82 µM
  TGI: 10.9 µM
[5]
  GI50: 4.01 µM
  TGI: 15.6 µM
[6]
  GI50: 1.51 µM
  TGI: 2.91 µM
[7]
  GI50: 7.11 µM
  TGI: 19.7 µM
[8]
  GI50: 0.0454 µM
  TGI: 4.12 µM
[9]
  GI50: 3.25 µM
  TGI: 15.6 µM
[10]
  GI50: 1.48 µM
  TGI: 3.11 µM
[11]
  GI50: 2.8 µM
  TGI: 11.6 µM
[12]
  GI50: 2.88 µM
  TGI: 15.4 µM
[13]
  GI50: 4.19 µM
  TGI: 15.7 µM
[14]
  GI50: 3.18 µM
  TGI: 13 µM
[15]
  GI50: 1.35 µM
  TGI: 12.2 µM
[16]
  GI50: 7.09 µM
  TGI: 19.9 µM
[17]
  GI50: 2.44 µM
  TGI: 14.3 µM
[18]
  GI50: 5.55 µM
  TGI: 18.3 µM
[19]
  GI50: 15.3 µM
  TGI: 30 µM
[20]
  GI50: 3.47 µM
  TGI: 14.2 µM
[21]
  GI50: 10.9 µM
  TGI: 23 µM
[22]
  GI50: 2.93 µM
  TGI: 10.8 µM
[23]
  GI50: 4.33 µM
  TGI: 14.5 µM
[24]
  GI50: 1.83 µM
  TGI: 9.95 µM
[25]
  GI50: 2.55 µM
  TGI: 11.1 µM
[26]
  GI50: 1.96 µM
  TGI: 5.94 µM
[27]
  GI50: 4.31 µM
  TGI: 16 µM
[28]
  GI50: 1.72 µM
  TGI: 5.44 µM
[29]
  GI50: 3.02 µM
  TGI: 13.7 µM
[30]
  GI50: 3.69 µM
  TGI: 13.7 µM
[31]
  GI50: 3.15 µM
  TGI: 13.1 µM
[32]
  GI50: 3.2 µM
  TGI: 15.4 µM
[33]
  GI50: 6.85 µM
  TGI: 21.3 µM
[34]
  GI50: 10.4 µM
  TGI: 22.2 µM
[35]
  GI50: 4.22 µM
  TGI: 15.7 µM
[36]
  GI50: 4.22 µM
  TGI: 14.8 µM
[37]
  GI50: 3.8 µM
  TGI: 17.5 µM
[38]
  GI50: 6.23 µM
  TGI: 18.7 µM
[39]
  GI50: 16.5 µM
  TGI: 33.2 µM
[40]
  GI50: 3.89 µM
  TGI: 14.9 µM
[41]
  GI50: 12.1 µM
  TGI: 26.1 µM
[42]
  GI50: 5.03 µM
  TGI: 17.5 µM
[43]
  GI50: 3.29 µM
  TGI: 12.2 µM
[44]
  GI50: 3.21 µM
  TGI: 13.3 µM
[45]
  GI50: 5.52 µM
  TGI: 17.8 µM
[46]
  GI50: 8.83 µM
  TGI: 21.2 µM
[47]
  GI50: 0.0471 µM
  TGI: 0.602 µM
[48]
  GI50: 1.16 µM
  TGI: 4.92 µM
[49]
  GI50: 7.52 µM
  TGI: 20 µM
[50]
  GI50: 1.61 µM
  TGI: 2.98 µM
[51]
  GI50: 18.9 µM
  TGI: 34.2 µM
[52]
  GI50: 2.58 µM
  TGI: 12.7 µM
[53]
  GI50: 2.22 µM
  TGI: 9.62 µM
[54]
  GI50: 3.49 µM
  TGI: 12.6 µM
[55]
  GI50: 5.42 µM
  TGI: 19 µM
[56]
  GI50: 2.49 µM
  TGI: 9.18 µM
[57]
  GI50: 2.19 µM
  TGI: 10.6 µM
[58]
  GI50: 2.83 µM
  TGI: 5.52 µM
